Results on 16 molecules are retold here after patent US20250346603A1, “TRICYCLIC COMPOUNDS AS PI3KALPHA INHIBITORS” (Pikavation Therapeutics, Inc., priority 2022, published 2025).

Some results are limits rather than exact numbers.

Experiment [1] has as its system T47D (PIK3CA H1047R) cells. The experiment in a line: pS473 AKT assay in T47D cells. The format is cell-based. Conditions: Homo sapiens, pSer473 AKT, 2 h treatment, read-out: T47D_IC50. On the procedure: (§1) SKBR3 (PIK3CA WT), MCF7 (PIK3CA E545K), and T47D (PIK3CA H1047R) cells were cultured using 10-cm petri dishes with recommended medium. One day before the assay, cells were seeded in 96-well plates. After overnight incubation, cells were treated with different concentrations of PI3Kα inhibitors for 2 h. Cells were then fixed using 4% paraformaldehyde at room temperature for 20 min. Cells were aspirated with 4% paraformaldehyde, and washed using 1× regular phosphate buffered saline 3 times, 5 min each. Any residual phosphate buffered saline was aspirated and cells were blocked using 10% goat serum containing 1% bovine serum albumin and 0.3% Triton X-100 at room temperature for 1 h. Without any additional washing, primary antibodies (rabbit anti-pSer473 AKT) were diluted using blocking buffer and added at a final volume of 50 microliter per well. Assay plates with primary antibodies were maintained overnight at 4° C. Cells were washed using 1× regular phosphate buffered saline 3 times, 5 min each. After the final wash, cells were incubated with horseradish peroxidase-conjugated secondary antibodies (goat Anti-rabbit IgG) and diluted using the same blocking buffer at room temperature for 1 h. Cells were then washed thoroughly using 1× regular phosphate buffered saline 3 times, 5 min each, and any residual phosphate buffered saline was aspirated. Super-Signal ELISA Pico Chemiluminescent Substrate was then added at a final volume of 100 microliter per well. Plates were read on a i3× Multi-Mode Microplate Reader and IC50 values calculated using GraphPad Prism software.
(§2) Results of the assay described above are presented in Table A. “++++” indicates an IC50 less than 1000 nM; “+++” indicates an IC50 greater than or equal to 1000 nM but less than 5000 nM; “++” indicates an IC50 greater than or equal to 5000 nM but less than 10000 nM; and “+” indicates an IC50 greater than or equal to 10000 nM.

For another experiment, the system named is SKBR3 (PIK3CA WT) cells. The experiment can be described thus: pS473 AKT assay in SKBR3 cells. The format is cell-based. Conditions: Homo sapiens, SK-BR-3, pSer473 AKT, 2 h treatment, read-out: SKBR3_IC50. On the procedure:
as §1, §2

In the case of `Cc1cc(C(C)Nc2ccc(Cl)nc2C(=O)O)c2nc(-c3cccc(C#N)c3)n3cnnc3c2c1` (stereo not drawn) [Example 10, 6-Chloro-3-((1-(5-(3-cyanophenyl)-9-methyl-[1,2,4]triazolo[4,3-c]quinazolin-7-yl)ethyl)amino)picolinic acid], the IC50 in experiment [1] is less than 1000 nM. On to `Cc1cc(C(C)Nc2ccc(Cl)nc2-c2ccnn2C)c2nc(N3CCN(C)CC3)n3cnnc3c2c1` (stereo not drawn) [Example 16, 6-Chloro-2-(1-methyl-1H-pyrazol-5-yl)-N-(1-(9-methyl-5-(4-methylpiperazin-1-yl)-[1,2,4]triazolo[4,3-c]quinazolin-7-yl)ethyl)pyridin-3-amine], for which the IC50 in experiment [1] was less than 1000 nM. Turning to `Cc1cc(C(C)Nc2ccccc2C(=O)O)c2nc(N3CCC(C)(C)CC3)n3ccnc3c2c1` (stereo not drawn) [Example 1, 2-((1-(5-(4,4-Dimethylpiperidin-1-yl)-9-methylimidazo[1,2-c]quinazolin-7-yl)ethyl)amino)benzoic acid], the IC50 in experiment [1] was less than 1000 nM; in the experiment with SKBR3 (PIK3CA WT) cells, no less than 10000 nM. For `CCc1ncn2c3c(C(C)Nc4ccc(C)nc4C(=O)O)cc(C)cc3c3nncn3c12` (stereo not drawn) [Example 12, 3-((1-(5-Ethyl-11-methylimidazo[1,5-a][1,2,4]triazolo[4,3-c]quinazolin-9-yl)ethyl)amino)-6-methylpicolinic acid], the IC50 in experiment [1] is 1000 to 5000 nM. Consider `Cc1cc(C(C)Nc2ccccc2C(=O)O)c2nc(-c3cccc(C#N)c3)n3cnnc3c2c1` (stereo not drawn) [Example 9, 2-((1-(5-(3-Cyanophenyl)-9-methyl-[1,2,4]triazolo[4,3-c]quinazolin-7-yl)ethyl)amino)benzoic acid], for which the IC50 in experiment [1] is less than 1000 nM. Take `CNC(=O)c1ccc(-c2nc(Cl)ccc2NC(C)c2cc(C)cc3c2nc(N2CCC(C)(C)CC2)n2cnnc32)cn1` (stereo not drawn) [Example 14, 6-Chloro-3-((1-(5-(4,4-dimethylpiperidin-1-yl)-9-methyl-[1,2,4]triazolo[4,3-c]quinazolin-7-yl)ethyl)amino)-N-methyl-[2,3′-bipyridine]-6′-carboxamide]: in experiment [1], the IC50 was less than 1000 nM. The same measure, in the same setting: the value for `Cc1cc(C(C)Nc2ccccc2C(=O)O)c2nc(-c3cc(F)cc(F)c3)n3cnnc3c2c1` (stereo not drawn) [Example 11, 2-((1-(5-(3,5-Difluorophenyl)-9-methyl-[1,2,4]triazolo[4,3-c]quinazolin-7-yl)ethyl)amino)benzoic acid] was less than 1000 nM.

With `Cc1cc(C(C)Nc2ccccc2C(=O)O)c2nc(N3CCC(C)(C)CC3)n3nnnc3c2c1` (stereo not drawn) [Example 8, 2-((1-(5-(4,4-dimethylpiperidin-1-yl)-9-methyltetrazolo[1,5-c]quinazolin-7-yl)ethyl)amino)benzoic acid], the values for the IC50 (in experiment [1]; in the experiment with SKBR3 (PIK3CA WT) cells) were 1000 to 5000 nM and no less than 10000 nM, respectively. Taken in the same sequence, the figures for `Cc1cc(C(C)Nc2ccccc2C(=O)O)c2nc(N3CCC(C)(C)CC3)n3ncnc3c2c1` (stereo not drawn) [Example 3, 2-((1-(5-(4,4-Dimethylpiperidin-1-yl)-9-methyl-[1,2,4]triazolo[1,5-c]quinazolin-7-yl)ethyl)amino)benzoic acid] were less than 1000 nM and no less than 10000 nM. For `Cc1cc(C(C)Nc2ccc(Cl)nc2-c2cnn(C)c2)c2nc(N3CCN(C)CC3)n3cnnc3c2c1` (stereo not drawn) [Example 15, 6-Chloro-2-(1-methyl-1H-pyrazol-4-yl)-N-(1-(9-methyl-5-(4-methylpiperazin-1-yl)-[1,2,4]triazolo[4,3-c]quinazolin-7-yl)ethyl)pyridin-3-amine], the IC50 in experiment [1] was less than 1000 nM. Regarding `Cc1cc(C(C)Nc2ccccc2C(=O)O)c2nc(N3Cc4ccccc4C3)n3cnnc3c2c1` (stereo not drawn) [Example 5, 2-((1-(5-(Isoindolin-2-yl)-9-methyl-[1,2,4]triazolo[4,3-c]quinazolin-7-yl)ethyl)amino)benzoic acid], the IC50 was less than 1000 nM in experiment [1] and no less than 10000 nM with SKBR3 (PIK3CA WT) cells.

Take `Cc1cc(C(C)Nc2ccccc2C(=O)O)c2nc(N3CC(C)(C)C3)n3cnnc3c2c1` (stereo not drawn) [Example 7, 2-((1-(5-(3,3-Dimethylazetidin-1-yl)-9-methyl-[1,2,4]triazolo[4,3-c]quinazolin-7-yl)ethyl)amino)benzoic acid]: the IC50 in experiment [1] is less than 1000 nM; in the experiment on SKBR3 (PIK3CA WT) cells, no less than 10000 nM. For `Cc1cc(C(C)Nc2ccccc2C(=O)O)c2nc(N3CCC(C)(C)CC3)n3cnnc3c2c1` (stereo not drawn) [Example 4, 2-((1-(5-(4,4-Dimethylpiperidin-1-yl)-9-methyl-[1,2,4]triazolo[4,3-c]quinazolin-7-yl)ethyl)amino)benzoic acid] the same measures were less than 1000 nM and no less than 10000 nM. For `Cc1cc(C(C)Nc2ccccc2C(=O)O)c2nc(N3Cc4ccccc4C3)n3ccnc3c2c1` (stereo not drawn) [Example 2, 2-((1-(5-(Isoindolin-2-yl)-9-methylimidazo[1,2-c]quinazolin-7-yl)ethyl)amino)benzoic acid] the same measures were less than 1000 nM and no less than 10000 nM. Taken in the same sequence, the figures for `Cc1cc(C(C)Nc2ccccc2C(=O)O)c2nc(N3CCC(C)(C)C3)n3cnnc3c2c1` (stereo not drawn) [Example 6, 2-((1-(5-(3,3-Dimethylpyrrolidin-1-yl)-9-methyl-[1,2,4]triazolo[4,3-c]quinazolin-7-yl)ethyl)amino)benzoic acid] were less than 1000 nM and no less than 10000 nM. Regarding `Cc1cc(C(C)Nc2ccc(Cl)nc2-c2ccncc2)c2nc(N3CCC(C)(C)CC3)n3cnnc3c2c1` (stereo not drawn) [Example 13, 6-Chloro-N-(1-(5-(4,4-dimethylpiperidin-1-yl)-9-methyl-[1,2,4]triazolo[4,3-c]quinazolin-7-yl)ethyl)-[2,4′-bipyridin]-3-amine], in experiment [1], the IC50 was less than 1000 nM.
